Tests used:
[1] = mn = molality of the nth substance listed, in mol/kg; settings: 101 kPa, Liquid; for speed of sound: Sing-around technique in a fixed-path interferometer; for mass density: Vibrating tube method
[2] = 313.15 K; 101 kPa; Liquid; Sing-around technique in a fixed-path interferometer

O=C[O-].[NH3+]CCCO [3-hydroxypropylammonium formate] + O
[1]
Settings | mass density, 298.15 K [kg/m3] | mass density, 303.15 K [kg/m3] | mass density, 308.15 K [kg/m3] | mass density, 313.15 K [kg/m3] | mass density, 318.15 K [kg/m3] | speed of sound, 298.15 K [m/s] | speed of sound, 303.15 K [m/s] | speed of sound, 308.15 K [m/s] | speed of sound, 313.15 K [m/s] | speed of sound, 318.15 K [m/s]
m1 = 0.1 | 998.637 | 997.222 | 995.623 | 993.757 | 991.751 | 1501.7 | 1513.4 | 1523.7 | 1532.4 | 1539.7
m1 = 0.2 | 1000.2 | 998.76 | 997.068 | 995.252 | 993.147 | 1507.7 | 1519 | 1528.9 | 1538.2 | 1545.2
m1 = 0.3 | 1001.76 | 1000.3 | 998.625 | 996.753 | 994.624 | 1513.5 | 1524.4 | 1533.9 | 1542 | 1548.6
m1 = 0.4 | 1003.33 | 1001.84 | 999.944 | 998.26 | 996.183 | 1519.7 | 1530.3 | 1539.6 | 1547.4 | 1553.8

O=C[C@H](O)[C@@H](O)[C@H](O)[C@H](O)CO [D-glucose] + O
[1]
Settings | mass density, 298.15 K [kg/m3] | mass density, 303.15 K [kg/m3] | mass density, 308.15 K [kg/m3] | mass density, 313.15 K [kg/m3] | mass density, 318.15 K [kg/m3] | speed of sound, 298.15 K [m/s] | speed of sound, 303.15 K [m/s] | speed of sound, 308.15 K [m/s] | speed of sound, 313.15 K [m/s] | speed of sound, 318.15 K [m/s]
m1 = 0.04842 | 1000.33 | 998.923 | 997.289 | 995.463 | 993.441 | 1499.3 | 1512.1 | – | 1531.8 | –
m1 = 0.06669 | 1001.56 | 1000.14 | 998.498 | 996.672 | 994.638 | – | 1513.2 | 1523.1 | 1532.9 | 1539.7
m1 = 0.0976 | 1003.62 | 1002.18 | 1000.53 | 998.7 | 996.647 | 1502.3 | 1515.1 | 1525 | 1534.6 | 1541.4
m1 = 0.1066 | 1004.22 | 1002.77 | 1001.12 | 999.285 | 997.23 | 1502.9 | 1515.6 | 1525.5 | 1535.1 | 1541.9
m1 = 0.1235 | 1005.32 | 1003.87 | 1002.21 | 1000.38 | 998.311 | 1504 | 1516.7 | 1526.6 | 1536.1 | 1542.8
m1 = 0.1462 | – | 1005.34 | 1003.67 | 1001.84 | 999.761 | 1505.4 | 1518.1 | – | 1537.3 | –

O=C[C@H](O)[C@H](O)[C@H](O)CO [D-ribose] + O
[1]
Settings | mass density, 298.15 K [kg/m3] | mass density, 303.15 K [kg/m3] | mass density, 308.15 K [kg/m3] | mass density, 313.15 K [kg/m3] | mass density, 318.15 K [kg/m3] | speed of sound, 298.15 K [m/s] | speed of sound, 303.15 K [m/s] | speed of sound, 308.15 K [m/s] | speed of sound, 313.15 K [m/s] | speed of sound, 318.15 K [m/s]
m1 = 0.0504 | 999.789 | 998.382 | 996.751 | 994.911 | 992.887 | 1498.8 | 1511.5 | 1521.3 | 1531.3 | 1538.2
m1 = 0.06883 | 1000.78 | 999.363 | 997.73 | 995.882 | 993.852 | 1499.8 | 1512.3 | 1522.2 | 1532.1 | 1539
m1 = 0.08626 | 1001.7 | 1000.29 | 998.651 | 996.793 | 994.758 | 1500.7 | 1513.1 | 1523 | 1532.9 | 1539.7
m1 = 0.1107 | 1003 | 1001.58 | 999.932 | 998.065 | 996.017 | 1502 | 1514.3 | 1524.1 | 1534 | 1540.7
m1 = 0.136 | 1004.33 | 1002.89 | 1001.25 | 999.37 | 997.311 | 1503.3 | 1515.5 | 1525.3 | 1535.1 | 1541.8
m1 = 0.1566 | 1005.39 | 1003.96 | 1002.31 | 1000.41 | 998.355 | 1504.4 | 1516.5 | 1526.3 | 1536 | 1542.7

O [water]
Settings | speed of sound [m/s]
[2] | 1528.9
